Laboratory results as given in PubChem BioAssay (NCI).
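A five-concentration, 48-hour dose response in 96-well plates underlies each endpoint, interpolated linearly between surrounding concentrations. The concentration for full growth arrest is given as TGI.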

Tests used:
Test in all cases: NCI tumour cell line growth inhibition, 48 h
[1] = system: SK-MEL-2 melanoma
[2] = system: M19-MEL melanoma
[3] = system: U251 CNS
[4] = system: K-562 leukemia
[5] = system: HCC-2998 colon
[6] = system: DMS 114 small cell lung
[7] = system: UACC-62 melanoma
[8] = system: P388/ADR leukemia
[9] = system: HOP-18 NSCLC
[10] = system: UACC-257 melanoma
[11] = system: P388 leukemia
[12] = system: EKVX NSCLC
[13] = system: SN12C renal
[14] = system: NCI-H226 lung
[15] = system: SNB-75 CNS
[16] = system: SNB-19 CNS
[17] = system: NCI-H23 lung
[18] = system: MCF7 breast
[19] = system: SK-OV-3 ovarian
[20] = system: HCT-15 colon
[21] = system: OVCAR-4 ovarian
[22] = system: HL-60(TB) leukemia
[23] = system: HOP-62 NSCLC
[24] = system: A549 NSCLC
[25] = system: SW-620 colon
[26] = system: HCT-116 colon
[27] = system: NCI-H522 lung
[28] = system: NCI/ADR-RES ovarian
[29] = system: MOLT-4 leukemia
[30] = system: SF-295 CNS
[31] = system: SNB-78 CNS
[32] = system: SF-268 CNS
[33] = system: OVCAR-8 ovarian
[34] = system: HT29 colon
[35] = system: SF-539 CNS
[36] = system: DMS 273 small cell lung
[37] = system: OVCAR-5 ovarian
[38] = system: NCI-H460 lung
[39] = system: SK-MEL-5 melanoma
[40] = system: CCRF-CEM leukemia
[41] = system: LOX IMVI melanoma
[42] = system: OVCAR-3 ovarian
[43] = system: UO-31 renal
[44] = system: CAKI-1 renal
[45] = system: SN12K1 renal
[46] = system: A498 renal
[47] = system: XF 498 CNS
[48] = system: KM20L2 colon
[49] = system: HOP-92 NSCLC
[50] = system: IGROV1 ovarian
[51] = system: RPMI-8226 leukemia
[52] = system: KM12 colon
[53] = system: RXF 393 renal
[54] = system: DLD-1 colon
[55] = system: MALME-3M melanoma
[56] = system: COLO 205 colon
[57] = system: SK-MEL-28 melanoma
[58] = system: ACHN renal
[59] = system: SR leukemia
[60] = system: 786-0 renal
[61] = system: TK-10 renal
[62] = system: LXFL 529 NSCLC
[63] = system: M14 melanoma

Compound: O=C1CCCN1CCCN=c1cc2n(-c3ccc(Cl)cc3)c3ccccc3nc-2cc1Nc1ccc(Cl)cc1
- TGI [1]: 30.7 µM
- TGI [2]: 5.45 µM
- TGI [3]: 54.2 µM
- TGI [4]: 30 µM
- TGI [5]: 18.1 µM
- TGI [6]: 20.2 µM
- TGI [7]: 26.2 µM
- TGI [8]: 15.4 µM
- TGI [9]: > 92.4 µM
- TGI [10]: 24.7 µM
- TGI [11]: 13 µM
- TGI [12]: 28.1 µM
- TGI [13]: 43.4 µM
- TGI [14]: 32.3 µM
- TGI [15]: 97.5 µM
- TGI [16]: 98.8 µM
- TGI [17]: 25.1 µM
- TGI [18]: 25.8 µM
- TGI [19]: 80.7 µM
- TGI [20]: 20 µM
- TGI [21]: 21.8 µM
- TGI [22]: 15.8 µM
- TGI [23]: 29.5 µM
- TGI [24]: 35.3 µM
- TGI [25]: 68.5 µM
- TGI [26]: 25.3 µM
- TGI [27]: 16.6 µM
- TGI [28]: 42.1 µM
- TGI [29]: 27 µM
- TGI [30]: 40.7 µM
- TGI [31]: 75.2 µM
- TGI [32]: > 100 µM
- TGI [33]: 53.2 µM
- TGI [34]: 13 µM
- TGI [35]: 28.2 µM
- TGI [36]: 43.6 µM
- TGI [37]: 37.3 µM
- TGI [38]: 22.1 µM
- TGI [39]: 19 µM
- TGI [40]: 50.3 µM
- TGI [41]: 28.2 µM
- TGI [42]: 6.18 µM
- TGI [43]: 51.3 µM
- TGI [44]: > 100 µM
- TGI [45]: 23.3 µM
- TGI [46]: 43.2 µM
- TGI [47]: 35.3 µM
- TGI [48]: 11 µM
- TGI [49]: 40.6 µM
- TGI [50]: 24.9 µM
- TGI [51]: 28.1 µM
- TGI [52]: 28.7 µM
- TGI [53]: 11.3 µM
- TGI [54]: 28.3 µM
- TGI [55]: 38.3 µM
- TGI [56]: 2.83 µM
- TGI [57]: 47.5 µM

Compound: CC(C)(C)N=CN(C=C(c1ccccc1)c1ccccc1)C1CCCCC1
- TGI [1]: > 100 µM
- TGI [2]: > 100 µM
- TGI [3]: > 100 µM
- TGI [4]: 39.9 µM
- TGI [6]: 55.3 µM
- TGI [7]: > 100 µM
- TGI [9]: > 100 µM
- TGI [10]: > 100 µM
- TGI [12]: > 100 µM
- TGI [13]: > 100 µM
- TGI [15]: > 100 µM
- TGI [16]: > 100 µM
- TGI [17]: > 100 µM
- TGI [20]: > 100 µM
- TGI [21]: > 100 µM
- TGI [23]: > 100 µM
- TGI [24]: > 100 µM
- TGI [25]: > 100 µM
- TGI [26]: > 100 µM
- TGI [58]: > 100 µM
- TGI [30]: 93.3 µM
- TGI [31]: > 100 µM
- TGI [32]: > 100 µM
- TGI [59]: 51 µM
- TGI [33]: > 100 µM
- TGI [34]: > 100 µM
- TGI [35]: > 100 µM
- TGI [36]: > 100 µM
- TGI [37]: > 100 µM
- TGI [38]: > 100 µM
- TGI [39]: 31.8 µM
- TGI [40]: > 100 µM
- TGI [41]: 92.3 µM
- TGI [60]: > 100 µM
- TGI [42]: > 100 µM
- TGI [44]: > 100 µM
- TGI [46]: 91.4 µM
- TGI [47]: 56.8 µM
- TGI [48]: 46.7 µM
- TGI [49]: 82.4 µM
- TGI [50]: > 100 µM
- TGI [52]: > 100 µM
- TGI [53]: 79.2 µM
- TGI [54]: > 100 µM
- TGI [55]: 35.8 µM
- TGI [56]: > 100 µM
- TGI [61]: > 100 µM
- TGI [57]: > 100 µM

Compound: Cc1cc(C)c(C(=O)/C=C/c2ccccc2)c(C)c1
- TGI [1]: 30.8 µM
- TGI [2]: > 100 µM
- TGI [3]: 29.4 µM
- TGI [4]: > 100 µM
- TGI [6]: 88.3 µM
- TGI [7]: > 100 µM
- TGI [62]: > 100 µM
- TGI [9]: > 100 µM
- TGI [10]: > 100 µM
- TGI [12]: > 100 µM
- TGI [13]: 34.7 µM
- TGI [14]: 43.1 µM
- TGI [15]: > 100 µM
- TGI [16]: 75.3 µM
- TGI [17]: 97.9 µM
- TGI [19]: > 100 µM
- TGI [20]: 51.3 µM
- TGI [21]: 81.6 µM
- TGI [22]: > 100 µM
- TGI [23]: 76 µM
- TGI [24]: > 100 µM
- TGI [25]: 48.1 µM
- TGI [26]: 78.2 µM
- TGI [27]: 46.1 µM
- TGI [58]: > 100 µM
- TGI [29]: > 100 µM
- TGI [30]: 48.8 µM
- TGI [32]: 50.6 µM
- TGI [59]: > 100 µM
- TGI [33]: 30 µM
- TGI [34]: > 100 µM
- TGI [38]: 39.3 µM
- TGI [63]: 40.3 µM
- TGI [39]: > 100 µM
- TGI [40]: > 100 µM
- TGI [60]: 81.6 µM
- TGI [43]: > 100 µM
- TGI [44]: > 100 µM
- TGI [47]: 26.5 µM
- TGI [48]: 96.9 µM
- TGI [49]: 58.4 µM
- TGI [50]: > 100 µM
- TGI [51]: 90.5 µM
- TGI [52]: > 100 µM
- TGI [53]: 34.5 µM
- TGI [54]: 68.9 µM
- TGI [55]: 83.5 µM
- TGI [56]: 71.3 µM
- TGI [61]: > 100 µM

Compound: CCCCS(=O)CC(CO)NC(=O)/C=C/c1c(C)[nH]c(=O)[nH]c1=O (stereo not given)
- TGI [1]: 23.4 µM
- TGI [2]: 18.1 µM
- TGI [3]: 26.7 µM
- TGI [4]: 82.1 µM
- TGI [5]: 30 µM
- TGI [6]: 25.1 µM
- TGI [7]: 32 µM
- TGI [8]: 59.2 µM
- TGI [9]: 183 µM
- TGI [10]: 55 µM
- TGI [11]: 6.93 µM
- TGI [12]: 43 µM
- TGI [13]: 49 µM
- TGI [14]: 34 µM
- TGI [15]: 30 µM
- TGI [16]: 24.8 µM
- TGI [17]: 44.6 µM
- TGI [18]: 51 µM
- TGI [19]: 65.3 µM
- TGI [20]: 183 µM
- TGI [21]: 26.4 µM
- TGI [22]: 21.5 µM
- TGI [23]: 45 µM
- TGI [24]: 87.1 µM
- TGI [25]: 152 µM
- TGI [26]: 88.2 µM
- TGI [27]: 21.4 µM
- TGI [28]: 93.2 µM
- TGI [29]: 50 µM
- TGI [30]: 38.8 µM
- TGI [32]: 20.8 µM
- TGI [33]: 32.4 µM
- TGI [34]: 122 µM
- TGI [35]: 35.4 µM
- TGI [36]: 52.7 µM
- TGI [37]: 89.8 µM
- TGI [38]: 17.2 µM
- TGI [39]: 21.5 µM
- TGI [40]: 51 µM
- TGI [41]: 40.9 µM
- TGI [42]: 15 µM
- TGI [43]: 73.3 µM
- TGI [44]: 114 µM
- TGI [45]: 24.1 µM
- TGI [46]: 32.5 µM
- TGI [47]: 14 µM
- TGI [48]: 56.8 µM
- TGI [49]: 101 µM
- TGI [50]: 35.4 µM
- TGI [51]: 59.2 µM
- TGI [52]: 49.7 µM
- TGI [53]: 51.3 µM
- TGI [54]: 72.1 µM
- TGI [55]: 14.6 µM
- TGI [56]: 53.4 µM
- TGI [57]: 44.5 µM
